# Columns and labels:
# [1] = system: Human monocyte cell line THP-1; test: Immunostimulatory effect on human monocyte cell line (CCK-8 cell proliferation, Stimulation Index); assay type: cell-based; conditions: 24 hr, compared to well added only with medium
# [2] = system: anti OVA-specific IgE antibody; test: Allergy induction activity test: anti OVA-specific IgE antibody in serum; assay type: in vivo, BALB/c mice; conditions: dorsal-subcutaneous, compared to OVA single administration group
# Experimental: 8-Week-old female BALB/c mice were divided into groups (N=6), and each group was primarily immunized by dorsal-subcutaneous administration of (1) ovalbumin (OVA) (10 μg) dissolved in saline as an antigen (OVA single administration group), (2) OVA (10 μg) and, as an adjuvant, N,N′-bis(2-heptylundecanoyl)-L-cystine dimethyl ester (SZ23) (2.56 μmol) (corresponding to 0.2 mg based on aluminum hydroxide gel adjuvant) dissolved in saline (SZ23; 2.56 μmol addition group), (3) OVA (10 μg) and SZ23; 0.256 μmol dissolved in saline (SZ23; 0.256 μmol addition group), (4) OVA (10 μg) and SZ23; 0.0256 μmol dissolved in saline (SZ23; 0.0256 μmol addition group), (5) OVA (10 μg) and aluminum hydroxide gel adjuvant (2.56 μmol) (0.2 mg) dissolved in saline (ALUM addition group, positive control), and (6) saline (saline single administration group), per each mouse. One week later, the secondary immunization was carried out by dorsal-subcutaneous administration of solutions similar to those of the above-mentioned (1) to (6) again. Two weeks from the secondary immunization, the whole blood and spleen were extracted under anesthesia, and the obtained serum sample was measured for anti OVA-specific IgG1 subclass antibody.
# The serum sample obtained in Example 2 was measured for an anti OVA-specific IgE antibody. The measurement method of the anti OVA-specific IgE antibody is as follows.
# DS mouse IgE ELISA (OVA) kit manufactured by DS Pharma Biomedical Co., Ltd. was used. The protocol is briefly shown below.
# The serum sample and a standard reagent for drawing an analytical curve were diluted with a buffer and, after stirring, left standing at room temperature for 10 min. The sample and the standard solution were added to a plate bound with an IgE capture antibody in advance and, after stirring, the mixture was left standing at room temperature for 60 min. […] A reaction quenching liquid was added, the mixture was stirred, and the absorbance (OD Value=450 nm) was immediately measured.
# [3] = system: anti OVA-specific IgG1 subclass antibody; test: Adjuvant activity test: anti OVA-specific IgG1 subclass antibody in serum after subcutaneous immunization with OVA; assay type: in vivo, BALB/c mice; conditions: for production of anti OVA-specific IgG1 subclass antibody: dorsal-subcutaneous
# Experimental: One week later, the secondary immunization was carried out by dorsal-subcutaneous administration of solutions similar to those of the above-mentioned (1) to (5) again. Two weeks from the secondary immunization, the whole blood and spleen were extracted under anesthesia, and the obtained serum sample was measured for anti OVA-specific IgG1 subclass antibody. A method for measurement of the anti OVA-specific IgG1 subclass antibody in Example 1, and the following Examples 2, 4, 7 to 10 and 13 to 16 is as follows.
# To a 96 well plate was added 5 μg/ml OVA at 100 μl/well, and the mixture was incubated at 4° C. overnight. After incubation, the mixture was washed three times with 200 μl of PBS-T (PBS (phosphate buffered saline)+0.05% (v/v) Tween 20) per well, and blocked with 100 μl of 5% FCS (fatal calf serum)/PBS solution per well at room temperature for 1 to 2 hr. Thereafter, the mixture was washed three times with PBS-T (200 μl/well), a diluted serum sample (100 μl/well) or the same amount of 5% FCS/PBS solution as a control was added, and the mixture was incubated at 37° C. for 1 hr. Thereafter, the mixture was washed five times with PBS-T (200 μl/well), a diluted biotinylated anti-mouse IgG1 antibody (100 μl/well) was added, and the mixture was incubated at 37° C. for 45 min. Thereafter, the mixture was washed five times with PBS-T (200 μl/well), a diluted anti-biotin-HRP antibody was added (100 μl/well), and the mixture was incubated at 37° C. for another 30 min. Thereafter, the mixture was washed five times with PBS-T (200 μl/well), TMB substrate solution was added (100 μl/well), and the mixture was incubated at room temperature for 10 to 15 min. Thereafter, a reaction quenching liquid (2N sulfuric acid solution) was added (50 μl/well) to discontinue a color developing reaction, and the absorbance (OD Value=450 nm) was measured by a microplate reader.
# One week later, the secondary immunization was carried out by dorsal-subcutaneous administration of solutions similar to those of the above-mentioned (1) to (6) again. Two weeks from the secondary immunization, the whole blood and spleen were extracted under anesthesia, and the obtained serum sample was measured for anti OVA-specific IgG1 subclass antibody.
# 8-Week-old female BALB/c mice were divided into groups (N=6), and each group was primarily immunized by dorsal-subcutaneous administration of (1) ovalbumin (OVA) ([…] administration group), (2) OVA (10 μg) and, as an adjuvant, N,N′-bis(2-heptylundecanoyl)-L-cystine dimethyl ester (SZ23) ([…]), (3) OVA (10 μg) and N,N′-bis(dodecanoyl)-L-cystine dimethyl ester (SZ24) ([…]), and (4) saline (saline single administration group), each per mouse. One week later, the secondary immunization was carried out by dorsal-subcutaneous administration of solutions similar to those of the above-mentioned (1) to (4) again. Two weeks from the secondary immunization, the whole blood was extracted under anesthesia, and the obtained serum sample was measured for anti OVA-specific IgG1 subclass antibody. SZ24 is disclosed in JP-A-4-230359, which is incorporated herein by reference in its entirety.
# 8-Week-old female BALB/c mice were divided into groups (N=6), and each group was primarily immunized by dorsal-subcutaneous administration of (1) ovalbumin (OVA) ([…] administration group), (2) OVA (10 μg) and, as an adjuvant, N,N′-bis(2-tetradecylhexadecanoyl)-L-cystine dimethyl ester (SZ37) (0.256 μmol) added to saline, (3) OVA (10 μg) and N,N′-bis(2-octadecyleicosanoyl)-L-cystine dimethyl ester (SZ38) (0.256 μmol) added to saline, (4) OVA (10 μg) and SZ37 (0.256 μmol) dissolved or dispersed in 5% αCD-added saline, and (5) OVA (10 μg) and SZ38 (0.256 μmol) dissolved or dispersed in 5% αCD-added saline, each per mouse. One week later, the secondary immunization was carried out by dorsal-subcutaneous administration of solutions or dispersions similar to those of the above-mentioned (1) to (5) again. […]
# [4] = system: Mouse macrophage-like cell line RAW; test: Immunostimulatory effect on mouse macrophage-like cell line (CCK-8 cell proliferation, Stimulation Index); assay type: cell-based; conditions: 24 hr, compared to well added only with medium
compound,measurement,setting,value
"CCCCCCCCCC(CCCCCCC)C(=O)N[C@@H](CSSC[C@H](NC(=O)C(CCCCCCC)CCCCCCCCC)C(=O)OC)C(=O)OC (stereo partly drawn) [SZ23, N,N′-bis(2-heptylundecanoyl)-L-cystine dimethyl ester]",cell proliferation (Stimulation Index),"[1]; THP-1, final concentration 400 nM",significant cell proliferation
same,cell proliferation (Stimulation Index),"[1]; THP-1, final concentration 4 μM",significant cell proliferation
same,production of anti OVA-specific IgE antibody,[2]; 0.0256 μmol in saline with OVA 10 μg,not observed
same,production of anti OVA-specific IgE antibody,[2]; 0.256 μmol in saline with OVA 10 μg,not observed
same,production of anti OVA-specific IgE antibody,[2]; 2.56 μmol in saline with OVA 10 μg,not observed
same,production of anti OVA-specific IgG1 subclass antibody,"[3]; 0.0256 μmol in saline with OVA 10 μg, compared to OVA single administration group",significantly increased
same,production of anti OVA-specific IgG1 subclass antibody,"[3]; 0.256 μmol dispersed in 5% αCD-added saline with OVA 10 μg, compared to control (OVA in 5% αCD-added saline)",significantly increased
same,production of anti OVA-specific IgG1 subclass antibody,"[3]; 0.256 μmol in saline with OVA 10 μg, compared to OVA single administration group",significantly increased
same,production of anti OVA-specific IgG1 subclass antibody,"[3]; 2.56 μmol in saline with OVA 10 μg, primary + secondary immunization, serum two weeks after, compared to OVA single administration group",significantly increased
same,production of anti OVA-specific IgG1 subclass antibody relative to ALUM addition group,"[3]; all addition groups 2.56, 0.256 and 0.0256 μmol in saline, compared to aluminum hydroxide gel adjuvant 2.56 μmol (0.2 mg)",of the same level
same,cell proliferation (Stimulation Index),[4]; final concentration 4 nM,significant cell proliferation
same,cell proliferation (Stimulation Index),[4]; final concentration 400 nM,significant cell proliferation
same,cell proliferation (Stimulation Index),[4]; final concentration 4 μM,significant cell proliferation

# From patent US10100008B2, “Immunostimulating agent” (AJINOMOTO CO., INC., priority 2014, dated 2018)
